Test results taken from publication PMC10349806 (Nature Communications, 2023).
Numbering of substitutions follows the chain as printed. Where “and” joins values, the source holds several entries; their conditions need not be identical. Equal entries are not always repeated.

Experiments:
[1] = target: T1, PfCRT variant D368A (Plasmodium falciparum, UniProt Q9N623, A220S/D368A/I356T/K76T/M74I/N326S/N75E/Q271E/R371I); test: CQ uptake assay, oocytes expressing D368A; type: cell-based
T1 sequence (Q9N623 1-424 M74I/N75E/K76T/A220S/Q271E/N326S/I356T/D368A/R371I): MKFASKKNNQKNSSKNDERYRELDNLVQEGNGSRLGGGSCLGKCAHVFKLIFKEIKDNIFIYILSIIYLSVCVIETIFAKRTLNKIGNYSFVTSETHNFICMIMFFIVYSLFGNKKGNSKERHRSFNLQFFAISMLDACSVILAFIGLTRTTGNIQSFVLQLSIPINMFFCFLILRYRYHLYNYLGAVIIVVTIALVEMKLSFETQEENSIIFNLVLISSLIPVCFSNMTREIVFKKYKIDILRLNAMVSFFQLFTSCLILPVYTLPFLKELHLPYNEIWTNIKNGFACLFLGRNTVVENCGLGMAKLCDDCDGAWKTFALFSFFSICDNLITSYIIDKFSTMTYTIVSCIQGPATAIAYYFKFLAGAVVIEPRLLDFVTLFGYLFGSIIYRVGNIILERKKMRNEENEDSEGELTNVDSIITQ
Procedure: (§1) Site-directed mutagenesis of PfCRT^Dd2 was performed as described using the megaprimer method with overlap extension[21],[54]. The primer pairs used are listed in Supplementary Table 6. Please note that a codon-optimized and oocyte-adapted version of PfCRT^Dd2 was used[22] (Supplementary Fig. 16). The resulting DNA fragment was cloned into the SP64T expression vector and verified by sequencing.
(§2) Oocytes were obtained as described previously. Briefly, adult (>2 years old) female X. laevis frogs (NASCO) were anesthetized in a cooled solution of ethyl 3-amino benzoate methanesulfonate (0.1%, w/v), followed by a surgical removal of parts of the ovary. The ovary lobes were carefully dissected and small pieces of oocytes were incubated in Ca^2+-free ND96 buffer (96 mM NaCl, 2 mM KCl, 1 mM MgCl2 buffered with 5 mM HEPES/NaOH, pH 7.5) supplemented with collagenase D (0.1%, w/v; Roche), BSA (0.5%, w/v), and 9 mm Na2HPO4 at 18 °C for 14-16 h while gentle shaking. After incubation, the oocytes were carefully washed several times with ND96 buffer (96 mM NaCl, 2 mM KCl, 1.8 mM CaCl2, 1 mM MgCl2 buffered with 5 mM HEPES/NaOH, pH 7.5) supplemented with 100 mg l^−1 gentamycin). Defolliculated and healthy-looking stage V-VI oocytes were manually selected for RNA microinjection. The RNA was generated as following: The codon-optimized sequences of PfCRT variants were cloned into the pSP64T expression vector. After vector linearization using the restriction endonucleases BamHI or SalI (New England Biolabs), transcription was performed using the in vitro SP6 mMessage mMachine Kit (Ambion)[34]. The obtained RNA was kept at −80 °C and diluted with nuclease-free water to a concentration of 0.6 μg μl^−1. Precision-bore glass capillary tubes (3.5-inch glass capillaries; Drummond Scientific Co.) were pulled on a vertical puller (P-87 Flaming/Brown micropipette puller, Sutter Instrument Co.), graduated, and placed on a microinjector (Nanoject II Auto-Nanoliter Injector, Drummond Scientific Co.). 50 nl of nuclease-free water alone (control oocytes) or 50 nl of 0.6 μg μl^−1 RNA were injected under stereomicroscopic control. Injected oocytes were incubated for 46–72 h at 18 °C with twice-daily buffer changes before usage in experiments.
Drug uptake assays were performed as described previously[21],[22],[24],[34]. […] The direction of radio-labeled drug transport is here from the mostly acidic extracellular solution (pH 4.5 or 6.0, as indicated) into the oocyte cytosol (pH ∼ 7.2), which corresponds to the efflux of drug from the acidic digestive vacuole (pH 5.2) into the parasite cytoplasm (pH 7.2). The topology of PfCRT in the oolemma is such that both the N- and C-terminus face the extracellular milieu[3],[22]. In the parasite, the N- and C-terminus face the lumen of the digestive vacuole. CQ uptake kinetics were performed by incubating oocytes in ND96 buffer adjusted to a pH of 4.5, 5.0, 5.5, or 6.0 and supplemented with 50 nM [^3H]CQ and one of 7 different CQ concentrations (10 µM, 50 µM, 100 µM, 200 µM, 300 µM, 400 µM, 500 µM CQ). The reaction was stopped at the 60 min time point, which is in the linear uptake range[22],[34] (Supplementary Fig. 17). […] The radioactivity of each sample was measured using a liquid scintillation analyzer Tri-Carb 4910 TR (PerkinElmer). Oocytes that were injected with water instead of RNA were analyzed in parallel, representing the uptake of a drug by diffusion and/or endogenous permeation pathways. […]

[2] = target: T2, PfCRT variant D137N (Plasmodium falciparum, UniProt Q9N623, A220S/D137N/I356T/K76T/M74I/N326S/N75E/Q271E/R371I); test: CQ uptake assay, oocytes expressing D137N; type: cell-based
T2 sequence (Q9N623 1-424 M74I/N75E/K76T/D137N/A220S/Q271E/N326S/I356T/R371I): T1 sequence (Q9N623 1-424 M74I/N75E/K76T/A220S/Q271E/N326S/I356T/D368A/R371I) with D137N, A368D
Procedure: as §1, §2
(§3) Drug uptake assays were performed as described previously[21],[22],[24],[34]. […] The direction of radio-labeled drug transport is here from the mostly acidic extracellular solution (pH 4.5 or 6.0, as indicated) into the oocyte cytosol (pH ∼ 7.2), which corresponds to the efflux of drug from the acidic digestive vacuole (pH 5.2) into the parasite cytoplasm (pH 7.2). The topology of PfCRT in the oolemma is such that both the N- and C-terminus face the extracellular milieu[3],[22]. In the parasite, the N- and C-terminus face the lumen of the digestive vacuole. CQ uptake kinetics were performed by incubating oocytes in ND96 buffer adjusted to a pH of 4.5, 5.0, 5.5, or 6.0 and supplemented with 50 nM [^3H]CQ and one of 7 different CQ concentrations (10 µM, 50 µM, 100 µM, 200 µM, 300 µM, 400 µM, 500 µM CQ). The reaction was stopped at the 60 min time point, which is in the linear uptake range[22],[34] (Supplementary Fig. 17). For determination of the amount of drug uptake for each oocyte, the reaction medium was removed and the oocytes were washed three times with 2 ml of ice-cold ND96 buffer. Each oocyte was individually transferred to a scintillation vial containing 5% sodium dodecyl sulfate (200 μl) for lysis. The radioactivity of each sample was measured using a liquid scintillation analyzer Tri-Carb 4910 TR (PerkinElmer). Oocytes that were injected with water instead of RNA were analyzed in parallel, representing the uptake of a drug by diffusion and/or endogenous permeation pathways. The resulting value represents the “background“ level of drug accumulation in oocytes (in-depth discussion in[22]). […]

[3] = test system: PfCRT variant E207K; test: CQ uptake assay, oocytes expressing E207K; type: cell-based, Plasmodium falciparum
Procedure: as §1, §2, §3

[4] = D368A, 50 µM CQ, 1 h, mean ± SEM
[5] = pH 4.5, single replicates, Fig 1d left
[6] = pH 6.0, single replicates, Fig 1d left
[7] = D137N, 50 µM CQ, 1 h, mean ± SEM
[8] = E207K, 50 µM CQ, 1 h, mean ± SEM

SMILES: CCN(CC)CCCC(C)Nc1ccnc2cc(Cl)ccc12 (centres unmarked) [CQ, chloroquine]
- Activity at pH 4.5 [1, 4]: 1.36 ± 0.32 pmol h-1 oocyte-1
- Activity at pH 6.0 [1, 4]: 3.05 ± 0.29 pmol h-1 oocyte-1
- R-value ([1]; D368A, CQ transport at pH 4.5 / pH 6.0): 0.44 ± 0.08
- D368A transport activity pH 4.5 [1, 5]: 2.14 pmol oocyte-1 h-1 and 0.90 pmol oocyte-1 h-1 and 1.05 pmol oocyte-1 h-1
- D368A transport activity pH 6.0 [1, 6]: 3.49 pmol oocyte-1 h-1 and 3.31 pmol oocyte-1 h-1 and 2.36 pmol oocyte-1 h-1
- Activity at pH 4.5 [2, 7]: 0.57 ± 0.14 pmol h-1 oocyte-1
- Activity at pH 6.0 [2, 7]: 0.95 ± 0.18 pmol h-1 oocyte-1
- R-value ([2]; D137N, CQ transport at pH 4.5 / pH 6.0): 0.59 ± 0.04
- D137N transport activity pH 4.5 [2, 5]: 0.77 pmol oocyte-1 h-1 and 0.37 pmol oocyte-1 h-1 and 0.63 pmol oocyte-1 h-1
- D137N R-value ([2]; pH 4.5 vs pH 6.0, Fig 1d left): 0.64 and 0.53 and 0.59
- D137N transport activity pH 6.0 [2, 6]: 1.20 pmol oocyte-1 h-1 and 0.70 pmol oocyte-1 h-1 and 1.07 pmol oocyte-1 h-1
- Activity at pH 4.5 [3, 8]: 1.91 ± 0.10 pmol h-1 oocyte-1
- Activity at pH 6.0 [3, 8]: 2.34 ± 0.24 pmol h-1 oocyte-1
- R-value ([3]; E207K, CQ transport at pH 4.5 / pH 6.0): 0.83 ± 0.04
- E207K transport activity pH 4.5 ([3]; pH 4.5, individual replicates, Fig 6b): 2.09 pmol oocyte-1 h-1 and 1.67 pmol oocyte-1 h-1 and 1.96 pmol oocyte-1 h-1
- E207K transport activity pH 6.0 ([3]; pH 6.0, individual replicates, Fig 6b): 2.92 pmol oocyte-1 h-1 and 1.97 pmol oocyte-1 h-1 and 2.13 pmol oocyte-1 h-1
- E207K R-value ([3]; ratio of activity pH 4.5 / pH 6.0): 0.72 and 0.85 and 0.92
